In one data set the test system is Colo205. Kind of data set: Resazurin reduction cell viability assay. The class given is cell-based, human. Particulars: 72 h continuous treatment, read-out: Colo205 IC50 ± SD. As for the experimental part: (§1) Solid tumor cell lines were seeded in 100 μl medium into 96-well plates at an appropriate cell number determined by a cell dilution assay (Cal51–2000 cells/well; Colo205, MCF10A and 184A1–3000 cells/well and MDA-MB-468, HCC1954–4000 cells/well). AML suspension cells were seeded in 96-well plates at approximately 3000 cells per well. Cells were incubated overnight at 37°C, 5% CO2. The following day, 100 μl fresh medium containing increasing concentrations of appropriate compound was added and the cells were incubated for up to 72 h at 37°C, 5% CO2. For pulse treatment of solid (adherent) tumor cell lines, medium was aspirated and replaced with fresh drug-free medium. For pulse treatment of suspension lines, plates were centrifuged at 478 xg for 5 min at the end of the incubation period with compound, medium containing compound was carefully aspirated and replaced with fresh compound-free medium. A total of 72 h after the start of treatment, 20 μl of a 10X stock of resazurin sodium salt (Sigma-Aldrich, Dorset, UK) prepared in medium was added to the cells and incubated for up to 3 h. […] was measured on the Wallac Victor plate reader (Cambridge, UK) at 544–595 nm. IC50/70/90 calculations were determined in XLFit.

In another data set the test system is THP-1. Kind of data set: Resazurin reduction cell viability assay. The class given is cell-based, human. The settings on record: Homo sapiens, THP-1, 72 h, THP-1; value the 7 x 7 combination matrix spans; 72 h; read-out: IC50 value of each compound (single agent). The protocol:
as §1

The subject of data set [1] is subcutaneous EOL-1 tumors. Kind of data set: EOL-1 human eosinophilic leukemia xenograft model. The class given is in vivo, SCID mice. The protocol:
Female athymic CB-17 SCID (Harlan Sprague-Dawley) mice between 6–7 weeks of age weighing approximately 22 grams were housed in a 12-h light-dark cycle at 70–74°F (21–23°C) and 40–60% humidity. Animals were fed water ad libitum (reverse osmosis, 2 ppm Cl2) and an irradiated standard rodent diet (Teklad 2919) consisting of 19% protein, 9% fat, and 4% fiber. Mice were injected subcutaneously into the right flank with 1x10^7 EOL-1 cells in 100 μl of a 1:1 HBSS:Matrigel solution. When tumors reached approximately 125–250 mm^3, animals were matched by tumor volume and then randomized into treatment and control groups before dosing was initiated. […] Cytarabine, also known as cytosine arabinoside (AraC), was administered by daily ip injection for 5 days only. Agent toxicity was assessed by effects on body weight and clinical signs. Animals were weighed twice weekly using a digital scale (Ohaus SP601). Beginning on Day 0, tumor dimensions were measured twice weekly by digital caliper (Fowler Ultra-Cal IV); tumor volume was calculated using the formula TV = width^2 x length x 0.52. […] Statistical differences in tumor volume were determined using a two-tailed One-Way Analysis of Variance (ANOVA) followed by the Dunnett’s multiple comparisons test comparing treated groups with control. For animal welfare the following methods were used: (a) methods of sacrifice: isoflurane anesthesia followed by cervical dislocation; (b) methods of anesthesia and/or analgesia: isoflurane anesthesia and (c) efforts to alleviate suffering: carprofen if animal veterinarian decides necessary or euthanasia.

Read-outs that look alike come from different tables or passages of the source.

Regarding `CN1CC[C@H](c2c(O)cc(O)c3c(=O)cc(-c4ccccc4Cl)oc23)[C@H](O)C1` [Alvocidib (flavopiridol), reference compound], the half-maximal inhibitory concentration (IC50) turned out to be 0.13 ± 0.02 µM in the data set on Colo205 and 0.129 µM in the data set with Colo205 (Homo sapiens, COLO 205, 72 h). For the molecule `CC1(C)CCC(c2ccc(Cl)cc2)=C(CN2CCN(c3ccc(C(=O)NS(=O)(=O)c4ccc(N[C@H](CCN5CCOCC5)CSc5ccccc5)c(S(=O)(=O)C(F)(F)F)c4)cc3)CC2)C1` [ABT-263, reference compound], the IC50 in the data set on THP-1 came to 0.27 µM. For `CC1(C)CCC(CN2CCN(c3ccc(C(=O)NS(=O)(=O)c4ccc(NCC5CCOCC5)c([N+](=O)[O-])c4)c(Oc4cnc5[nH]ccc5c4)c3)CC2)=C(c2ccc(Cl)cc2)C1` [ABT-199, reference compound], the half-maximal inhibitory concentration (IC50) in the data set on THP-1 stood at 0.06 µM. Turning to `CN(C)CC[C@H](CSc1ccccc1)Nc1ccc(S(=O)(=O)NC(=O)c2ccc(N3CCN(Cc4ccccc4-c4ccc(Cl)cc4)CC3)cc2)cc1[N+](=O)[O-]` [ABT-737, reference compound], the IC50 in the data set with THP-1 was 0.43 µM. `Nc1ccn([C@@H]2O[C@H](CO)[C@@H](O)[C@@H]2O)c(=O)n1` [cytarabine, cytosine arabinoside, reference compound]: in data set [1] (100 mg/kg i.p.), the “transient body weight loss” value stood at 3%. The “tumor growth inhibition (TGI)” value in data set [1] (100 mg/kg i.p. days 1-5, Day 19) amounted to 38%. For the same molecule, in data set [1] (100 mg/kg i.p. days 1-5, day 9), the “median TGI” value was determined as 41%. Turning to `CC[C@H](Nc1nc(NCc2cccnc2)c2ncn(C(C)C)c2n1)[C@@H](C)O` [CCT068127], the IC50 with Colo205 (Homo sapiens, COLO 205, 72 h) came out at 0.82 µM.

Source of the values: article PMC7347136 (PLoS ONE, 2020).
